These results are taken from patent publication US12414948B2, “Methods” (INTRA-CELLULAR THERAPIES, INC., priority 2022, dated 2025).

The subject of assay [1] is hippocampal cytokine mRNA (Il1b, Il6, Tnfa, Il10). In words: Hippocampal cytokine mRNA (qRT-PCR) after co-injection of LPS and lumateperone. In kind it is in vivo, mouse. Conditions: mice, 2 h, relative change normalized to control (Dct method). On the procedure: (§1) All other reagents are obtained in the highest purity available from Sigma-Aldrich (St. Louis, MO) unless otherwise noted. […] Some rodents are given a cotreatment with a subcutaneous (SC) injection of lipopolysaccharide (LPS, 500 μg/kg; Sigma-Aldrich, ref #0127:B8) diluted in 0.9% injectable saline while control group animals receive injections of all vehicles matching the experimental conditions. […] On day 2, either no injection for naïve rats, or saline or LPS is injected (1 mg/kg, SC).
Animals. Adult, male C57BL/6 mice weighing 28-30 grams at the time of the experiment are housed in groups of 4 or 5 in small cages. Adult, male Sprague-Dawley rats weighing 175-200 grams at the time of arrival after shipping are housed in pairs. All animals are housed under standard laboratory housing conditions with a 12-hour light/dark cycle and ad libitum access to food and water.
Tissue Collection. […] Rats are euthanized 18 hours after LPS injection for sample collection. Hippocampi from mice and rats are rapidly dissected under RNAse-free conditions and placed in 1.5 mL Eppendorf tubes. When appropriate, samples are snap frozen in liquid nitrogen prior to storage at −80° C. until further analysis. Trunk blood is collected from mice into serum collection tubes, allowed to clot at room temperature for 1 hour, then centrifuged at 1,500 g for 10 minutes at 4° C.
(§2) Quantitative Real-Time PCR. Mouse hippocampal tissue is homogenized with glass beads in 1 mL of TRIzol reagent using a BeadBeater (Biospec Products, Bartlesville, OK). Heavy phase-lock gel tubes enabled separation of phases following the addition of 400 μL chloroform to the sample and centrifugation at 12,000 rpm for 10 minutes at room temperature. RNA is extracted using Qiagen Rneasy kit (Qiagen, Hilden, Germany). For cDNA synthesis, 2 μg of total RNA is used (SuperScript IV Reverse Transcriptase; ThermoFisher Scientific, Waltham, MA). The purity and concentration of RNA is measured with a Nanodrop spectrophotometer; the optical density (OD) 260/280 and OD 260/230 are within 1.8-2.3. In the hippocampus, 4 key markers of pro- and anti-inflammatory cytokines and chemokines (Il1b: ID Mm00434228_m1, Tnfa: ID Mm00443258_m1, 116: ID Mm00446190_m1, and I110: ID Mm01288386_m1; ThermoFisher Scientific) are initially chosen for analysis (n=5-12 per group). In subsequent experiments, the transcripts for other markers of inflammation are chosen for analysis including Icam1 (ID Mm00516023_m1; a cell adhesion molecule involved in immune cell migration), Cldn5 (ID Mm00727012_s1; a tight junctions protein), colony stimulating factor 1 (Csf1: ID Mm00432686_m1; a factor that regulates microglia function) and its receptor Csf1r (ID Mm01266652_m1), and the nucleotide binding and oligomerization domain-like receptor family pyrin domain-containing 3 inflammasome complex (Nlrp3: Mm00840904_m1). Gapdh (ID Mm99999915_g1) is chosen as a housekeeping gene. QuantStudio 7 (ThermoFisher Scientific) is used for analyzing the plates (MicroAmp Optical 384-well plates; Applied Biosystems, Waltham, MA, and ThermoFisher Scientific) that are loaded with TaqMan Universal Master Mix II without uracil-DNA glycosylate in a 20 μl reaction volume using 100 ng cDNA per well. All mRNAs are measured by qRT-PCR on ABI Prism 7900HT system using TaqMan Gene Expression Assays. Ct values of genes of interest are normalized to that of the reference gene (Gapdh).
Specific cytokines are elevated in serum or plasma of patients with MDD and other psychiatric disorders. Here, the gene and protein expression of a subset of pro- and anti-inflammatory cytokines is measured in mouse brain in response to an inflammatory challenge using a single dose of LPS (500 μg/kg) to induce acute brain inflammation. […] The results are shown in Table 1A as relative change in mRNA levels for each cytokine gene (Il1b, Il6, Tnfa, Il10) normalized to the control group using the Dct method (n=5-12 per group): […]

The subject of assay [2] is hippocampal mRNA (Il1b, Il6, Tnfa, Il10, Icam1, Cldn5, Csf1). The experiment in a line: Hippocampal mRNA (qRT-PCR), delayed injection of lumateperone 30 minutes after LPS. The class given is in vivo, mouse. The settings on record: for Hippocampal mRNA expression (delayed injection) Cldn5 / Hippocampal mRNA expression (delayed injection) Csf1 / Hippocampal mRNA expression (delayed injection) Icam1: normalized to control. On the procedure:
as §1
as §2, with “The purity and concentration of RNA is measured with a Nanodrop spectrophotometer; the optical density (OD) 260/280 and OD 260/230 are within 1.8-2.3.” left out
Samples are collected 1.5 hours later (i.e., 2 hours after LPS injection).
For orientation: Quantitative PCR measures a nucleic acid by following its amplification.

[3] abbreviates: LPS 500 μg/kg SC-challenged mice, label LPS = LPS + vehicle, label Luma = Luma 3 mg/kg IP 30 min after LPS, 2 h after LPS.
[4] abbreviates: LPS 500 μg/kg SC-challenged mice, label LPS = LPS + vehicle, label Luma = Luma 3 mg/kg IP 30 min after LPS, 2 h after LPS, normalized to control (Dct).
The mark [5] stands for this setting: Luma 0.3 mg/kg IP co-injected with LPS 500 μg/kg SC.
[6] abbreviates: Luma 3 mg/kg IP co-injected with LPS 500 μg/kg SC.
Where [7] appears, read: Luma 8 mg/kg IP co-injected with LPS 500 μg/kg SC.
Setting [8] is: mice, saline SC then Luma 3 mg/kg IP 30 min later (no LPS).
The mark [9] stands for this setting: mice, saline SC then Luma 3 mg/kg IP 30 min later (no LPS), samples 1.5 h later, normalized to control (Dct).

Turning to “lipopolysaccharide [LPS, reference compound]”, in assay [1] (LPS 500 μg/kg SC + vehicle), the “Hippocampal cytokine mRNA expression IL-1b” value was 2.88, the “Hippocampal cytokine mRNA expression IL-6” value worked out at 1.03, the “Hippocampal cytokine mRNA expression IL-10” value was 0.43 and the “Hippocampal cytokine mRNA expression TNF-alpha” value amounted to 1.75. Besides, in assay [2] (setting [3]), the “Hippocampal mRNA expression (delayed injection) Cldn5” value is reported as −0.63, the “Hippocampal mRNA expression (delayed injection) Csf1” value came to 0.41 and the “Hippocampal mRNA expression (delayed injection) Icam1” value is recorded as 4.33. Besides, in assay [2] (setting [4]), the “Hippocampal cytokine mRNA expression (delayed injection) IL-1b” value amounted to 2.89, the “Hippocampal cytokine mRNA expression (delayed injection) IL-6” value amounted to 1.10, the “Hippocampal cytokine mRNA expression (delayed injection) IL-10” value turned out to be 1.88 and the “Hippocampal cytokine mRNA expression (delayed injection) TNF-alpha” value amounted to 2.33.

In the case of `CN1CCN2c3c(cccc31)[C@@H]1CN(CCCC(=O)c3ccc(F)cc3)CC[C@@H]12` [Luma, lumateperone], in assay [1] (setting [5]), the “Hippocampal cytokine mRNA expression IL-6” value is listed as 0.52, the “Hippocampal cytokine mRNA expression IL-10” value is on record as −0.28 and the “Hippocampal cytokine mRNA expression TNF-alpha” value is given as 0.43. For the same compound, in assay [1] (setting [6]), the “Hippocampal cytokine mRNA expression IL-1b” value came out at 0.85, the “Hippocampal cytokine mRNA expression IL-6” value was found to be 0.15 and the “Hippocampal cytokine mRNA expression TNF-alpha” value is reported as −0.09. Moreover, in assay [1] (setting [7]), the “Hippocampal cytokine mRNA expression IL-1b” value is given as 0.43, the “Hippocampal cytokine mRNA expression IL-6” value is recorded as 0.16 and the “Hippocampal cytokine mRNA expression TNF-alpha” value was −0.24. In addition, in assay [2] (setting [3]), the “Hippocampal mRNA expression (delayed injection) Cldn5” value is reported as 0.20 and the “Hippocampal mRNA expression (delayed injection) Csf1” value is listed as −0.11. Also, in assay [2] (setting [4]), the “Hippocampal cytokine mRNA expression (delayed injection) IL-6” value is on record as −0.10 and the “Hippocampal cytokine mRNA expression (delayed injection) TNF-alpha” value was found to be 0.34. In assay [2] (setting [8]), the “Hippocampal mRNA expression (delayed injection) Cldn5” value is on record as 0.33, the “Hippocampal mRNA expression (delayed injection) Csf1” value was 0.05 and the “Hippocampal mRNA expression (delayed injection) Icam1” value is 0.28. Further, in assay [2] (setting [9]), the “Hippocampal cytokine mRNA expression (delayed injection) IL-1b” value is on record as 0.90, the “Hippocampal cytokine mRNA expression (delayed injection) IL-6” value is −0.46 and the “Hippocampal cytokine mRNA expression (delayed injection) TNF-alpha” value was −0.31.
